Results on one molecule are retold here after patent EP4205737A1, “COMPOSITION FOR PREVENTION, AMELIORATION, OR TREATMENT OF INFLAMMATORY DISEASES OR IMMUNE DISEASES COMPRISING GANCAONIN N AS ACTIVE INGREDIENT” (UNIVERSITY-INDUSTRY COOPERATION GROUP OF KYUNG HEE …, priority 2020, dated 2022).

Each structure is given as a SMILES string.

In data set [1] the test system is IL-6. As to the kind of experiment: Western blotting of IL-6 protein in LPS-stimulated A549 cells. The class given is cell-based, human. To be noted: LPS 5 µg/mL, 5 to 40 µM (FIG. 4C). The protocol: (§1) RAW264.7 cells and A549 cells were dispensed into 6-well plates (1 × 10^6 cells/well) and cultured under conditions of 37°C and 5% CO2. After the culturing, the Raw 264.7 cells were treated with 1 µg/mL of lipopolysaccharide (LPS) and the A549 cells were treated with 5 µg/mL of lipopolysaccharide (LPS) and with 5 µM to 40 µM of gancaonin N, and the cells were cultured for 24 hours or 6 hours. Then, the cells were lysed using a lysis buffer. In addition, the left lung extracted from each mouse was lysed using RIPA buffer. SDS-PAGE electrophoresis was performed on the cell and tissue lysates to separate proteins by side, and 5% bovine serum albumin was used for culturing and for blocking antibodies against PGE2 (1:500), IL-1β (1:500), IL-6 (1:500), TNF-α (1:500), i-NOS (1:500), COX-2 (1:1000), P-ERK1/2 (1:1000), ERK1/2 (1:3000), P-p38 (1:1000), p38 (1:3000), NF-κB p65 (1:1000), Lamin B1 (1:1000), and β-actin (1: 5,000).
For the pro-inflammatory cytokines whose mRNA expression inhibition was confirmed as above, the expression level of the protein encoded by the mRNA was further checked. To determine the protein expression level, A549 cells were treated with LPS and gancaonin N as described in Examples 1 to 8, and the protein expression levels were checked.

Data set [2] relates to p38. As to the kind of experiment: MAPK/NF-κB signaling pathway: p38 in LPS-stimulated A549 cells. The class given is cell-based, human. On the procedure:
as §1
To identify through which pathway the anti-inflammatory response occurs, the role of gancaonin N in the MAPK/NF-κB signaling pathway was investigated. […]

The test system of data set [3] is COX-2. As to the kind of experiment: Western blotting of COX-2 in lung of LPS-induced acute lung injury mouse model. The note with it: mice, 10 mg/kg or 30 mg/kg intraperitoneally, LPS-induced ALI, Western blotting (FIG. 8). The class given is in vivo, BALB/c mice. The protocol:
(§2) 25 6-week-old female BALB/c mice having a weight of 18g to 20 g were purchased from BioLink (DBL CO., Eumseong, Chungcheongbuk-do, Korea), and reared in the animal laboratory of KyungHee University. To establish an LPS-induced acute lung injury model, all the mice were divided into five groups each group of which consisted of 5 mice, and the five groups were referred to as control, vehicle (only LPS treatment), gancaonin N (10 mg/kg), gancaonin N (30 mg/kg), and dexamethasone (3 mg/kg). Gancaonin N was intraperitoneally injected at a dose of 10 mg/kg or 30 mg/kg, and dexamethasone was intraperitoneally injected at a dose of 3 mg/kg as a positive control group. In addition, the control and vehicle groups were intraperitoneally injected with 4% DMSO in which gancaonin N was dissolved. Then, 10 µg/50 µL of LPS was intratracheally administered to the mice except for the control group one hour later (the control group mice were administered 50 µL of PBS), and the mice were sacrificed 12 hours later.
RAW264.7 cells and A549 cells were dispensed into 6-well plates (1 × 10^6 cells/well) and cultured under conditions of 37°C and 5% CO2. […]
To specifically investigate whether gancaonin N can inhibit pro-inflammatory factors in a mouse model, the protein expression levels of COX-2, IL-1β, and TNF-α were measured by Western blotting as described in Examples 1 to 6 above.

Data set [4] deals with COX-2. Nature of the data set: Western blotting of COX-2 in LPS-stimulated RAW264.7 cells. The class given is cell-based, murine. The note with it: LPS 1 µg/mL, 5 to 40 µM, as treatment concentration increased (FIG. 2D). On the procedure:
as §1
To investigate the anti-inflammatory effect of gancaonin N, the inventors treated Raw264.7 cells with LPS and Gancaonin N, as described in Examples 1 to 6, and evaluated the expression level of inflammation-inducing factors. Thus, the inhibitory effect of gancaonin N on inflammation-related factors was specifically confirmed.

The test system of data set [5] is A549 cells. Nature of the data set: Cell viability analysis (MTT), A549 cells. The class given is cell-based, human. The note with it: A549 cells, 5, 10, 20, 40 µM, 24 hours, compared to the control group (FIG. 1B). On the procedure:
RAW264.7 murine macrophage cells were purchased from Korean Cell Line Bank (in Seoul, South Korea). A549 human alveolar basal epithelial cells were purchased from American Type Culture Collection (in ATCC, MD, USA). The cells were cultured in DMEM medium (manufactured by Corning Inc., NY, USA) containing 10% FBS (manufactured by Gibco, NY, USA) and 1X antibiotic-antimycotic solution (manufactured by ABAM, Corning Inc., NY, USA) under conditions of 37°C and 5% CO2.
To evaluate the cytotoxicity of gancaonin N, RAW264.7 cells and A549 cells were dispensed into 96-well plates (1 × 10^4 cells/well) and cultured under conditions of 37°C and 5% CO2. After the culturing, the cells were treated with gancaonin N at concentrations of 5, 10, 20, or 40 µM for 24 hours, and MTT solution (5 mg/mL) was added to each well. After adding 100 µL of dimethyl sulfoxide (DMSO, manufactured by Sigma-Aldrich, St. Louis, MO, USA), the absorbance was measured at 540 nm using a microplate reader (manufactured by Bio-Rad Hercules, CA, USA).
To examine the cytotoxicity of gancaonin N, the inventors treated Raw264.7 cells and A549 cells with gancaonin N according to the methods of Examples 1 to 4 and then measured cell viability.

Data set [6] concerns LPS-induced acute lung injury (ALI) mouse model. As to the kind of experiment: Bronchoalveolar lavage fluid analysis (inflammatory cell infiltration), LPS-induced acute lung injury mouse model. The class given is in vivo, BALB/c mice. To be noted: mice, 10 mg/kg or 30 mg/kg intraperitoneally one hour before intratracheal LPS. On the procedure: as §2, with “Then, 10 µg/50 µL of LPS was intratracheally administered to the mice except for the control group one hour later (the control group mice were administered 50 µL of PBS), and the mice were sacrificed 12 hours later.” left out
Bronchoalveolar lavage fluid (BALF) was obtained after anesthetizing each mouse with intranasal isoflurane. […] The cells were stained with the Diff-Quik kit (Sysmex, Kobe, Japan), observed under a microscope, and sorted, and then the total cells and neutrophils were counted.
The mouse models prepared as described in Examples 1 to 3 were treated with LPS to induce acute lung injury (ALI), and then the anti-inflammatory effect of gancaonin N was specifically evaluated for the mice of five groups (control, vehicle (only LPS), gancaonin N (10 mg/kg), gancaonin N (30 mg/kg), and dexamethasone (3 mg/kg)), […]

Regarding `COc1ccc(-c2coc3cc(O)c(CC=C(C)C)c(O)c3c2=O)c(O)c1` [gancaonin N, 5,7-dihydroxy-3-(2-hydroxy-4-methoxyphenyl)-6-(3-methylbut-2-enyl)chromen-4-one], the “protein expression of IL-6” value in data set [1] is “significantly inhibited”. Moreover, the “activity/protein expression levels of p38” value in data set [2] (5µM to 40 µM 2 hours before LPS treatment (FIG. 5B)) is “significantly reduced”. Also, the “amount of gancaonin N at which the inhibitory effect on the activity/protein expression levels of p38 was most excellent” value in data set [2] (LPS, tested 5µM to 40 µM) worked out at 20 µM. Besides, the “protein expression level of COX-2 in lung” value in data set [3] was “significantly reduced”. Besides, in data set [4], the “expression level of protein of COX-2” value is “significantly decreased”. Moreover, the cell viability result in data set [5] was “did not decrease”. Besides, the “cell count in bronchoalveolar lavage fluid (BALF)” value in data set [6] (sacrificed 12 hours later (FIG. 6B)) is listed as “significantly reduced”. Moreover, the “neutrophil count in bronchoalveolar lavage fluid (BALF)” value in data set [6] (sacrificed 12 hours later (FIG. 6C)) was “significantly reduced”.
